Marks after values point to notes of the source that are not given here.
Experiments:
Format in all cases: in vivo
EAE model of MS = test: T cell encephalitogenicity in adoptive transfer after in vitro treatment of the cells; parameters: dose or concentration left out as unconfirmed; settings: cells activated 3 days, then transferred into naïve B10PL mice
Experimental: (§1) EAE Induction. Immunization: 8-10 week old B6/WT or SJL/WT mice were s.c. injected over four sites in the flank with 200 μg MOG 35-55 or […] (CS bio) in an emulsion with CFA (Difco). 200 ng pertussis toxin (List) per mouse in PBS was injected i.p. at the time of immunization and 48 h later. Adoptive transfer: Splenocytes were isolated from naïve 5-10-week-old Vα2.3/Vβ8.2 TCR transgenic mice and activated with 10 μg/ml of MBP Ac1-11 with or without rmIL-6 in 24-well plates at […] with irradiated B10.PL splenocytes (6×10^8 cells/well). After 72 hours, the cells were washed with PBS and 8×10^6 were injected i.p. into naïve B10.PL mice. Evaluation. The mice were evaluated daily for clinical signs of EAE. Mice were scored on scale of 0 to 6:0, no clinical disease; 1, limp/flaccid tail; 2, moderate hind limb weakness; 3. severe hind limb weakness; 4. complete hind limb paralysis; 5 quadriplegia or premoribund state; and 6, death.
DMSO was used as vehicle control. The cells were then adoptively transferred into naïve B10PL mice (disease incidence). Data are representative of multiple independent experiments.

[1] = tested on: adoptively transferred EAE; test: Adoptively transferred EAE model of MS (B10.PL mice)
Experimental: as §1
The in vivo efficacy of LLL12b was evaluated in adoptively transferred EAE model by treating EAE mice with […] of LLL12b for 7 days after disease onset. FIGS. 9A-9C show representative data for the effect of a representative disclosed compound, LLL12b, on suppression of EAE development in an adoptive transfer EAE model of MS. […] The mice were then treated with either DMSO or a representative disclosed compound, LLL12b, (10 mg/kg) by daily intraperitoneal for 7 days. […] The summary of all four independent experiments was shown below in Table 1.
EAE was induced via adoptive transfer of activated myelin-specific CD4 T cells from Vα2.3/Vβ8.2 TCR transgenic mice into B10.PL mice. LLL12b or DNSO (vehicle control) was injected i.p. into mice daily for 7 days, starting when 70% of the mice developed clinical EAE. Mice were monitored for clinical signeds of EAE. Assessment of clinical EAE includes the incidence of EAE, the mean peak clinical scores±SEM and the area under the curve. The results of three independent experiments are shown. ^aP<0.01, comparing incidence of EAE in LLL12b group versus DMSO group. ^bP<0.01, comparing mean peak clinical score of LLL12b group versus DMSO group. ^cP<0.05, comparing area under the curve of LLL12b group versus DMSO group.
LLL12b treatment suppresses the production of inflammatory cytokines in myelin-specific CD4 T cells and promotes Treg development in vivo. The ex vivo analysis to determine the T effector function of myelin-specific CD4 T cells as well as Treg development in treated mice was carried. FIGS. 10A-10C show representative data for the effect of treatment with a representative disclosed compound. LLL12b, on Treg development in an adoptively transferred EAE model of MS. Briefly, splenocytes from were isolated from either a LLL12b- or DMSO-treated group as indicated and analysed.

chronic EAE model of MS = test: Chronic EAE model of MS (MOG-immunized B6 mice)
Experimental: as §1
The in vivo efficacy of LLL12b was also evaluated in chronic EAE model of MS in immunized B6 mice by treating EAE mice with […] of LLL12b for 7 days after disease onset. FIGS. 8A-8B show representative data for the effect of a representative disclosed compound, LLL12b, for suppression of EAE development in a chronic EAE model of MS. Briefly, naïve WT/B6 mice were immunized with […].

[2] = tested on: relapsing-remitting EAE model of MS; test: Relapsing-remitting EAE model of MS (PLP-immunized SJL mice); settings: 10 mg/kg daily, days 9-15 or days 36-42
Experimental: as §1
SJL mice develop relapsing-remitting disease after immunization with PLP 139-151, which resembles human relapsing-remitting MS, the major subtype of MS that affects more than 85% of MS patients. […]

Row | SMILES | T cell encephalitogenicity in adoptive transfer (EAE model of MS) | EAE development (in words) ([1]; 10 mg/kg daily intraperitoneal for 7 days after disease onset) | level of CD25+FoxP3+CD4+ Treg cells in splenocytes of treated animals ([1]; ex vivo flow cytometry) | production of IFNγ by splenocytes of treated animals (ELISA) ([1]; ex vivo, activated with MBP Ac1-11 for 3 days) | Area under the curve (clinical score) ([1]; i.p. daily for 7 days) | Incidence of EAE (%) ([1]; i.p. daily for 7 days, starting when 70% of the mice developed clinical EAE) | Mean peak clinical score ([1]; i.p. daily for 7 days, ± SEM) | EAE development (mean clinical score) (chronic EAE model of MS; 10 mg/kg for 7 days, day 14 to day 20, after disease onset) | IL-17 production of splenocytes from treated mice (ELISA) (chronic EAE model of MS; ex vivo, activated with MOG 35-55 for 3 days) | acute and relapsing EAE (mean clinical score) [2]
1 | NS(=O)(=O)c1cccc2c1C(=O)c1cccc(O)c1C2=O [LLL12] | inhibits T cell encephalitogenicity |  |  |  |  |  |  |  |  | 
2 | CN(C)C(=O)Oc1cccc2c1C(=O)c1cccc(S(N)(=O)=O)c1C2=O [LLL12b] |  | significantly suppresses EAE development | statistically significant increase | notable decrease | 22.12 ± 2.09 ^c | 26/34 (76%) ^a | 2.03 ± 0.27 ^b | significantly suppresses EAE development | decreased IL-17 production | significantly suppresses acute and relapsing EAE

Source: patent US12594265B2, “Methods and compositions for inhibition of STAT3” (Ohio State Innovation Foundation, priority 2017, dated 2026)
